Data: patent US20100247456A1, “METHODS AND COMPOSITIONS FOR PREVENTING CARIES” (priority 2009, published 2010)
Several values for one entry are separate records, joined by “and”; a condition that tells them apart may be missing. Identical values can stand only once.

Tested on: caries
Assay: 6-month comparison of silver-diamine-fluoride (SDF) and fluoride varnish in school aged children
Type: in vivo
Procedure: A fluoride composition was used in the study.
The compositions were applied once at the time of the initial exam using a tiny brush to any decayed area for 3 min, then the child rinsed.

[1] = after 6 months, applied once to decayed area for 3 min

In the case of silver diamine fluoride [SDF], the “SDF Number Needed To Treat, Active Caries” value ([1/(Varnish % − SDF %)], 6 months) is reported as 1.2, the “SDF Prevented Fraction, Active Caries” value ([(Varnish % − SDF %)/Varnish %], 6 months) is reported as 82.7 and the “reduction in active caries compared to fluoride varnish” value (after 6 months) is reported as “about 80%”. For the same substance, the “Active Caries, # of School Children, Frequency” value [1] was 20, the “Active Caries, # of School Children, Percent” value [1] was 16% and 16.8% and the “Active and Arrested Caries in same child, # of School Children, Frequency” value [1] was 69. The “Active and Arrested Caries in same child, # of School Children, Percent” value [1] was 58.0%, the “Arrested Caries, # of School Children, Frequency” value [1] was 27 and the “Arrested Caries, # of School Children, Percent” value [1] was 22.7%. The “Dental Fillings, # of School Children, Frequency” value [1] was 3 and the “Dental Fillings, # of School Children, Percent” value [1] was 2.5%.
